Measurements: patent US4759917A, “Oxidative dissolution of gallium arsenide and separation of gallium from arsenic” (priority 1987, dated 1988)

Test: Viscosity of hydroxamic acids
Type: physicochemical
Settings: neat, without a solvent
Excerpt: When a liquid hydroxamic acid compound is used, it can be used neat as the organic phase in the oxidation-dissolution reaction and the subsequent extraction-separation. However it will often be preferable to use an organic solvent as an extender, or to lower viscosity or lessen absorption or resulting losses of the hydroxamic acid, or to promote phase separation, and the organic phase often includes a liquid hydrocarbon solvent. Such solvent must be substantially water immiscible so as to be separable from the aqueous solutions containing the arsenic values. Suitable solvents include aliphatic and aromatic hydrocarbons such as kerosene, hexane, toluene, methylene chloride, chloroform, carbon tetrachloride, xylene, naphtha, cyclohexane, Chevron Ion Exchange solvent, Kermac 470-B. Solvesso 100 and the like. Kerosene and other low viscosity, high flash point petrolleum distillates are preferred. Generally, the hydroxamic compounds will be present in the organic phase in an amount of at least about 2% by weight. Preferably, the N-alkyl alkanohydroxamic compound will be present in the amount of 2 to 40%, more preferably about 10 to 35%, by weight based on the total organic phase. Viscosity and/or solubility serves to fix the upper limit of the content of said hydroxamic compound which will depend upon the structure of the compound employed. […]

With N-methyl isostearohydroxamic acid the viscosity was “sufficiently low viscosity that they can be used neat”.
